# Test results reported in patent US20210115000A1, “NILE RED DERIVATIVES FOR IMPROVED RATIOMETRIC IMAGING FOR NERVE SPECIFIC CONTRAST” (Oregon Health & Sciences University, priority 2018, published 2021).
# Assays:
# [1] = Spectroscopic analysis: absorbance, emission and quantum yield of Nile Red derivatives; type: physicochemical; settings: in DMSO; for QY (quantum yield): standard Rhodamine B
# Method: Tandem liquid chromatography mass spectroscopy (LCMS) analysis (Agilent 1260 LC system with a 6224 time of flight (TOF) MS, Agilent, Santa Clara, Calif.) was performed using a 2.7 micron C18 column (4.6×50 mm, Agilent). High performance liquid chromatography (HPLC) purification (Agilent 1260 system with a preparative pump) was performed using a 5 micron C18 column (21.2×150 mm, Agilent). For both HPLC and LCMS, the mobile phase consisted of HPLC grade acetonitrile and water, treated with 0.1% formic acid. Spectroscopic analysis was performed on a Spectramax M5 spectrometer (Molecular Devices, Sunnyvale, Calif.) using a quartz cuvette with a 1 cm pathlength. Quantum yield was calculated according to equation (1).
# Where Ø is the quantum yield, F is the integrated fluorescence intensity, f is the absorbance at the excitation wavelength and n is the refractive index of the solvent. S refers to the quantum yield standard (Rhodamine B)^25 and X refers to the unknown sample.
# [2] = tested on: U2OS human osteosarcoma cell line; test: Nile Red derivative cell staining and imaging, fixed and live cells; type: cell-based; settings: 1 μM; for fluorescence intensity in fixed cells: U2OS fixed with 4% PFA, imaged without washing; for fluorescence intensity in live cells without washing / structures observed in live cells without washing: U2OS live, imaged in staining solution
# Method: The U2OS human osteosarcoma cell line was cultured in Dulbecco's Modified Eagle Medium (DMEM, Thermo Fisher Scientific, Waltham, Mass.) with 10% fetal bovine serum (FBS, VWR, Radnor, Pa.) and 1% Penicillin/Steptomycin 100× (Thermo Fisher Scientific) at 37° C. in 5% CO2. For live cell imaging studies, Fluorobrite DMEM media (Thermo Fisher Scientific) was used in place of DMEM. For imaging studies, cells were grown in 96-well glass bottom plates (Cellvis, Mountain View, Calif.) for 48 hours, with a final confluence of <80%. Nile Red and its derivatives were prepared at 1-10 mM stock concentration in DMSO and diluted into media or buffer for cell staining and imaging studies.
# Cell staining studies were completed on fixed and live U2OS cells using Nile Red and each synthesized Nile Red derivative described as follows. For fixed cell staining, cells were washed once with 1× phosphate buffered saline (PBS), then fixed with 4% paraformaldehyde (PFA) for 20 minutes at room temperature. The PFA was removed and each well was washed three times for 5 mins per wash (3×5 mins) with 1×PBS. The Nile Red fluorophores were diluted into 1×PBS to a final concentration of 1 μM, incubated for 5 minutes with the cells, and images were collected without washing. Live cell staining was completed using two methods. First, cells were washed once with Fluorobrite DMEM. The Nile Red fluorophore solution was prepared in Fluorobrite DMEM by diluting to a final concentration of 1 μM for staining, where cells were stained for 5 minutes. The fluorophore containing media was removed and the cells were fixed for 20 minutes using 4% PFA. Cells were then washed 3×5 mins with Fluorobrite DMEM prior to imaging. Second, cells were washed with Fluorobrite DMEM without FBS once for 5 minutes. Nile Red fluorophore solutions were prepared in Fluorobrite without FBS at 1 μM final concentration for cell staining. The cells were stained with the prepared solution for 5 minutes and imaged in the staining solution. All images were collected at their ideal exposure times to permit visualization of stained intracellular structures.
# All ex vivo and cellular fluorescence and white light images were collected using a Zeiss AxioObserver inverted fluorescence microscope (Carl Zeiss, Oberkochen, Germany). All cell images were collected at 40× magnification and all tissue section images were collected at 10× magnification. Fluorescence excitation was completed using a Photofluor II broad band light source (89 North, Burlington, Vt.) filtered with a 545±12.5 nm bandpass excitation filter. Fluorescence images were collected using a 605±35 nm bandpass emission filter and a AxioCam 506 monochromo camera (Zeiss). All Filters were Purchased from Chroma Technologies (Bellows Falls, Vt.).
# [3] = tested on: sciatic nerve or brachial plexus nerve sites (adipose, nerve, muscle tissue); test: In vivo imaging following direct/topical administration on rodent nerve sites; parameters: species or system male CD-1 mice; settings: immediately following direct administration
# Excerpt: In vivo images were acquired using a previously published, custom-built small animal fluorescence imaging system, described briefly here.^27 Fluorescent images were obtained using a Qimaging EXi Blue monochrome camera (Surrey, British Columbia, CA) with a removable Bayer mask for collection of co-registered color and fluorescence images. A Photofluor II broad band light source (89 North) was expanded onto the surgical field through a liquid light guide and used unfiltered for white light illumination. Nile Red and NR5 were excitated using a 545 t 12.5 nm bandpass filter, while fluorescence emission images were collected with a 605±35 nm bandpass filter. Oxazine 4 (Exciton, West Chester, Ohio) was used for nerve and adipose co-staining and ratiometic imaging studies. Oxazine 4 was excited using a 620±30 nm bandpass filter, while fluorescence emission images were collected through a 700±37.5 nm bandpass filter. Approval for the use of animals in the study was obtained from the Institutional Animal Care and Use Committee (IACUC) at Oregon Health and Science University (OHSU). In vivo staining studies were carried out on male CD-1 mice using an optimized direct/topical administration protocol.^2 Staining was performed concurrently on no more than two nerve sites (sciatic nerve or brachial plexus) per mouse. Nile Red and all Nile Red derivatives were formulated in a previously published co-solvent formulation (10% DMSO, 5% Kolliphor, 63.75% serum and 21.25% PBS^14) at a final concentration of 100 μM. Each formulated fluorophore was incubated for 5 minutes on the nerve site (n=4 nerve sites/fluorophore), followed by 9 short flushes with PBS. The nerve site was then incubated with blank co-solvent not containing fluorophore for 5 minutes, followed again by 9 short flushes with PBS.
# [4] = tested on: nerve, adipose and muscle tissue at nerve sites; test: In vivo co-staining with Oxazine 4, ratiometric imaging and ROC curve analysis; parameters: species or system male CD-1 mice; settings: 30 min after staining compared to immediately following staining
# Excerpt: In vivo images were acquired using a previously published, custom-built small animal fluorescence imaging system, described briefly here.^27 Fluorescent images were obtained using a Qimaging EXi Blue monochrome camera (Surrey, British Columbia, CA) with a removable Bayer mask for collection of co-registered color and fluorescence images. A Photofluor II broad band light source (89 North) was expanded onto the surgical field through a liquid light guide and used unfiltered for white light illumination. Nile Red and NR5 were excitated using a 545 t 12.5 nm bandpass filter, while fluorescence emission images were collected with a 605±35 nm bandpass filter. Oxazine 4 (Exciton, West Chester, Ohio) was used for nerve and adipose co-staining and ratiometic imaging studies. Oxazine 4 was excited using a 620±30 nm bandpass filter, while fluorescence emission images were collected through a 700±37.5 nm bandpass filter. Approval for the use of animals in the study was obtained from the Institutional Animal Care and Use Committee (IACUC) at Oregon Health and Science University (OHSU). In vivo staining studies were carried out on male CD-1 mice using an optimized direct/topical administration protocol.^2 Staining was performed concurrently on no more than two nerve sites (sciatic nerve or brachial plexus) per mouse. Nile Red and all Nile Red derivatives were formulated in a previously published co-solvent formulation (10% DMSO, 5% Kolliphor, 63.75% serum and 21.25% PBS^14) at a final concentration of 100 μM. Each formulated fluorophore was incubated for 5 minutes on the nerve site (n=4 nerve sites/fluorophore), followed by 9 short flushes with PBS. The nerve site was then incubated with blank co-solvent not containing fluorophore for 5 minutes, followed again by 9 short flushes with PBS. In vivo co-staining was completed with (1) Nile Red and Oxazine 4 as well as (2) NR5 and Oxazine 4. For these studies, co-solvent formulated Oxazine 4 ([…]) was incubated on the nerve site for 5 minutes followed by 9 short flushes with PBS. The co-solvent formulated Nile Red or NR5 (100 μM) was then incubated on the nerve site for 5 minutes and also followed by 9 short flushes with PBS. Co-registered (1) Nile Red and Oxazine 4 or (2) NR5 and Oxazine 4 images were collected from n=4 nerve sites per groups (1) and (2). Ratiometric images were calculated and quantified using region of interest analysis on the white light images to identify the nerve, adipose and muscle tissue types. Due to the known cross talk of Oxazine 4 into the Nile Red channel,^2 the Oxazine 4 image was subtracted from the Nile Red or NR5 image resulting in an image of only adipose. The ratiometric images were then calculated as the Oxazine 4 image minus the corrected Nile Red or NR5 image divided by the corrected Nile Red or NR5 image. Receiver Operator Characteristic (ROC) curve analysis was performed to assess differences between the ratiometric images, where the area under the curve (AUC) was used as the metric to differentiate between groups (1) and (2) using custom written MatLab code.^28
# [5] = U2OS, fixed and washed prior to imaging
Compound,Max Abs [1],Max Em [1],Stokes Shift [1],QY (quantum yield) [1],"staining pattern in cells stained live, then fixed [2, 5]",adipose to muscle ratio [3],adipose to nerve ratio [3],fluorescence intensity in fixed cells ([2]; 5 min),fluorescence intensity in live cells without washing ([2]; 5 min),structures observed in live cells without washing ([2]; 5 min),"ROC AUC of nerve-to-muscle contrast, change [4]","exposure time in cells stained live, then fixed ([2]; U2OS, 5 min, fixed and washed prior to imaging)"
"CCN(CC)c1ccc2nc3c4cc(C#Cc5cccc(N)c5)ccc4c(=O)cc-3oc2c1 [NR7, 2-((3-aminophenyl)ethynyl)-9-(diethylamino)-5H-benzo[a]phenoxazin-5-one]",565 nm,640 nm,75 nm,0.14,more cytoplasmic structures were stained,–,–,–,–,–,–,–
CCN(CC)c1ccc2nc3c4ccc(-c5ccc(N)cc5)cc4c(=O)cc-3oc2c1 [NR1],555 nm,635 nm,80 nm,0.08,–,"lower than Nile Red, adipose to muscle contrast was similar",increased contrast over control autofluorescence with similar adipose to nerve contrast,brighter in vitro fluorescence than NR12,brighter than other Nile Red derivatives with higher quantum yields such as NR12 and NR6,Prominent lipid droplet like structures,–,–
"CC/N=c1/cc2oc3cc(NCC)c(C)cc3nc-2cc1C [Oxazine 4, reference compound]",–,–,–,–,–,–,–,–,–,–,improved values,–
"CCN(CC)c1ccc2nc3c4cc(C#Cc5ccc(C=O)c(S(C)(=O)=O)c5)ccc4c(=O)cc-3oc2c1 [NR6, 4-((9-(diethylamino)-5-oxo-5H-benzo[a]phenoxazin-2-yl)ethynyl)-2-(methylsulfonyl)benzaldehyde]",570 nm,640 nm,70 nm,0.45,more cytoplasmic structures were stained,–,increased contrast over control autofluorescence with similar adipose to nerve contrast,–,–,–,–,less than 10 sec

# The next lines start with results.
Max Abs [1],Max Em [1],Stokes Shift [1],QY (quantum yield) [1],Compound,"staining pattern in cells stained live, then fixed [2, 5]",adipose to muscle ratio [3],adipose to nerve ratio [3],fluorescence intensity in fixed cells ([2]; 5 min),fluorescence intensity in live cells without washing ([2]; 5 min),structures observed in live cells without washing ([2]; 5 min),"ROC AUC of nerve-to-muscle contrast, change [4]","exposure time in cells stained live, then fixed ([2]; U2OS, 5 min, fixed and washed prior to imaging)"
555 nm,635 nm,80 nm,0.04,"CCN(CC)c1ccc2nc3c4cc(-c5ccc(N)cc5)ccc4c(=O)cc-3oc2c1 [NR10, 2-(4-aminophenyl)-9-(diethylamino)-5H-benzo[a]phenoxazin-5-one]",more cytoplasmic structures were stained,"lower than Nile Red, adipose to muscle contrast was similar",increased contrast over control autofluorescence with similar adipose to nerve contrast,–,–,–,–,–
565 nm,640 nm,75 nm,0.48,"CCN(CC)c1ccc2nc3c4cc(C#Cc5cccc(C=O)c5)ccc4c(=O)cc-3oc2c1 [NR8, 3-((9-(diethylamino)-5-oxo-5H-benzo[a]phenoxazin-2-yl)ethynyl)benzaldehyde]",–,–,–,bright,brightest of the synthesized derivatives,–,–,–
565 nm,640 nm,75 nm,0.48,"CCN(CC)c1ccc2nc3c4cc(C#Cc5cc(C=O)ccc5OC)ccc4c(=O)cc-3oc2c1 [NR9, 3-((9-(diethylamino)-5-oxo-5H-benzo[a]phenoxazin-2-yl)ethynyl)-4-methoxybenzaldehyde]",–,–,–,–,–,Prominent lipid droplet like structures,–,–
